In experiment [1] the test system is Akt (Ser473) phosphorylation. In words: Akt phosphorylation by Western blot in RBL-2H3/ETFR cells. In kind it is cell-based, rat. The following applies: 0 to 10 minutes. As to the method:
RBL-2H3/ETFR grown to semi-confluence, were exposed to DMEM alone, 10 nM fMLF with/without 10 nM RI-3 at 37 °C in humidified air with 5% CO2. At the indicated times, cells were lysed in RIPA buffer and cell lysate protein content was measured by a colorimetric assay. Western blot analysis of AKT phosphorylation was performed as previously described using anti-phospho-Akt (Ser473) (pAKT) Ab (Cell Signaling) and anti-Akt mAb (R&D System). The effects of fMLF with/without 10 nM RI-3 were analyzed at the level of global kinase phosphorylation, using the dot-blot Proteome Profiler^TM Array Human PhosphoKinase Array Kit (R&D Systems), according to manufacturer’s instructions. Briefly, 300 µg of protein were applied on each membrane and the signals were detected as described for Western blot. The pixel density of each spot was measured using NIH Image 1.62 software. The intensity of positive control spots was used to normalize results between the four membranes. The intensity for each spot was then averaged over the duplicate spots.
For orientation: In western blotting, separated proteins are transferred to a membrane and probed.

Another experiment deals with T1, FPR1 (Homo sapiens, UniProt P21462).
T1 construct: expressed in transfected cells; host or cells: rat basophilic leukaemia RBL-2H3/ETFR cells (gift of F. Blasi)
T1 sequence (P21462 1-350): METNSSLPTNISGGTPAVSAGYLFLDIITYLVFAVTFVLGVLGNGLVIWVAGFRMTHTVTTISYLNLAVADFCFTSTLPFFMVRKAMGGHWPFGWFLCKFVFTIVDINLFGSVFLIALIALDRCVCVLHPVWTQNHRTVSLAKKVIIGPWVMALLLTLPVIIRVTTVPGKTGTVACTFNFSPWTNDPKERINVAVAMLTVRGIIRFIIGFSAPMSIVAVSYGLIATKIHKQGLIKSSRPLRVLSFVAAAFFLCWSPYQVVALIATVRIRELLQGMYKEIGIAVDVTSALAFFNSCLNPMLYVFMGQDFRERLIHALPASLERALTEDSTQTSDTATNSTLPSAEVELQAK
In words: Ligand binding assay: FITC-fMLF binding to RBL-2H3/ETFR cells. The following applies: 100 nM unlabeled peptide 60 min at 4 °C, then 10 nM FITC-fMLF 60 min at 4 °C; fluorescence plate reader. As to the method: RBL-2H3 cells, RBL-2H3/ETFR cells stably expressing FPR1 (1.5 × 10^6 cells/sample) were pre-incubated with diluents or the indicated unlabeled peptides for 60 min at 4 °C, extensively rinsed with phosphate buffer saline (PBS), exposed to 10 nM FITC-fMLF (Molecular Probes) in PBS for additional 60 min at 4 °C and again rinsed with PBS. Cell-associated fluorescence was quantitated with the fluorescence plate reader Victor 3 (Perkin Elmer) using 485 nm excitation and 535 nm emission filters. The experiments were performed three times in triplicate.

For the next experiment, the system named is HT1080 cells. In words: HT1080 cell migration toward 10% FBS in Boyden chambers. In kind it is cell-based, human. Conditions: 10 nM peptide plus 10% FBS, 4 hr, means of three independent experiments in triplicate. As for the experimental part: Cell migration in Boyden chambers was carried out for 4 hr at 37 °C in humidified air with 5% CO2, as described. Briefly, cell suspension (1 × 10^5 viable cells/mL serum free medium) was seeded in each upper chamber. Lower chambers were filled with DMEM alone, DMEM containing RI peptides, 10 nM fMLF, or 10% FBS with/without RI peptides. The two compartments were separated by 8 μm pore size polycarbonate filters (Neuroprobe) coated with 2.5 µg/mL vitronectin (Corning). For the invasion assays, 8 μm pore size filters were coated with 50 μg/filter matrigel (BD Biosciences) as previously described[40] and cells (3 × 10^4 viable cells/well) were allowed to invade matrigel for 6 hr at 37 °C, 5% CO2. In all cases, at the end of the assay, cells on the lower filter surface were fixed with ethanol, stained with haematoxylin and 10 random fields/filter were counted at 200× magnification. Each experiment was performed three times in triplicate.

The subject of experiment [2] is osteosarcoma Saos-2 cells. In words: Matrigel invasion kinetics, xCELLigence RTCA, Saos-2. It counts as cell-based, human. The following applies: Saos-2, 10 nM, 10% FBS, 20 hr. As to the method: This assay was performed using E-well plates and the xCELLigence RTCA technology as described. Bottom wells were coated with 20 µg/well matrigel diluted in serum free medium. Matrigel was allowed to polymerize for 1 hr at 37 °C prior to seeding cells (1 × 10^4 cells/well) suspended in growth medium plus/minus RI peptides. Cells that cross matrigel adhere to the bottom of plates causing impedance changes that are proportional to the number of invading cells, and are expressed as a cell index value. Matrigel invasion was monitored for 20 hr. The experiments were performed three times in quadruplicate.

[ ]: non-standard residue; d: D form. Aib = CC(C)(N)C(=O)O

This note sets out measurements from paper PMC5430962, “Retro-inverso Urokinase Receptor Antagonists for the Treatment of Metastatic Sarcomas” (Scientific Reports, 2017).

In the case of “Ac-[dY][dR][Aib][dR]-NH2 (SMILES CC(=O)N[C@H](Cc1ccc(O)cc1)C(=O)N[C@H](CCCNC(=N)N)C(=O)NC(C)(C)C(=O)N[C@H](CCCNC(=N)N)C(N)=O) [RI-3]”, in experiment [1] (10 nM fMLF with 10 nM peptide), the “effect on fMLF-induced Akt phosphorylation” value was “consistently decreased”. The “effect of peptide alone on Akt phosphorylation” value in experiment [1] (10 nM, no fMLF) is given as “did not affect Akt phosphorylation”. Further, the “effect on binding of FITC-fMLF to RBL-2H3/ETFR cells” value at FPR1 is recorded as “prevented binding of FITC-fMLF to RBL-2H3/ETFR cells to a similar extent as compared to fMLF as well as RERF”. Moreover, the “reduction of FBS-directed cell migration” value in the experiment on HT1080 cells came out at 57%. For the same substance, the “reduction of matrigel invasion (slope of cell index)” value in experiment [2] is recorded as 24%.
